Source: the supplement of paper PMC11208160

Assay: recombinant UMI read abundance after kanamycin selection (control-corrected) (log10(CPM+1)); higher = more efficient recombination; extreme values may be limits of the assay; sequences stand for … in AGTGCAGAGAAAATCGGCCAGTTTTCTCTGCCTGCAGTCCGCATGCCGTGGGACCCCTTGGGTTCTAACCTGTTGCCTAGATTTATGCAGCGGACTGCCTTTCTCCCAAAGTGATAAACCGG…AGGTTGGTTTCACT; site = the 11-nt donor
How it was run: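 Pooled Escherichia coli screen of donor and donor-binding-loop pairs for the IS621 bridge recombinase. Each pair sits with a 12-nt UMI on a plasmid carrying a promoterless kanamycin gene. The library was co-electroporated with a target plasmid encoding a fixed target and T7-inducible recombinase, then plated with IPTG (0.07 mM) plus kanamycin, or unselected, each in two replicates. Recombinant UMIs were PCR-amplified across the donor–target junction and sequenced. Counts became CPM, averaged over replicates, scaled by control-derived factors and reported as log10(CPM+1).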

Row | Sequence | recombinant UMI read abundance (log10)
1 | ATTGAGACATGGACCGGTTTTCCCGGTAATCCGTATTTGAT (site ATTGAGACTAC) | 0.217
2 | ATTGAGACATGGACCGGTTTTCCCGGTAATCCGTATTTGAT (site ATTGAGACTAG) | 0.528
3 | ATTGAGACATGGACCGGTTTTCCCGGTAATCCGTATTTGAT (site ATTGAGACTAT) | 2.01
4 | ATTGATACATGGACCGGTTTTCCCGGTAATCCGTATTTGCG (site CCACTCCCTGT) | 0
5 | ATTGCACCATGGACCGGTTTTCCCGGTAATCCGTATTTGGT (site ATTGCACCTAC) | 0.00574
6 | ATTGCCACATGGACCGGTTTTCCCGGTAATCCGTATTTGCC (site ATTGCCACTGG) | 1.95
7 | ATTGTAACATGGACCGGTTTTCCCGGTAATCCGTATTTGAG (site ATTGTAACTCT) | 0.94
8 | ATTGTATCATGGACCGGTTTTCCCGGTAATCCGTATTTGTC (site ATTGTATCTGA) | 1.56
9 | ATTGTGACATGGACCGGTTTTCCCGGTAATCCGTATTTGCT (site ATTGTGACTAG) | 2.98
10 | ATTTCAACATGGACCGGTTTTCCCGGTAATCCGTATTTGAC (site ATTTCAACTGT) | 0.461
11 | ATTTCCACATGGACCGGTTTTCCCGGTAATCCGTATTTGTC (site ATTTCCACTGA) | 0.636
12 | ATTTGGGCATGGACCGGTTTTCCCGGTAATCCGTATTTGGG (site ATTTGGGCTCC) | 0.0319
13 | CAAAATCCATGGACCGGTTTTCCCGGTAATCCGTATTTGTA (site CAAAATCCTTA) | 1.8
14 | CAAAGGGCATGGACCGGTTTTCCCGGTAATCCGTATTTGTA (site CAAAGGGCTTA) | 2.57
15 | CAAAGTCCATGGACCGGTTTTCCCGGTAATCCGTATTTGTA (site AAAAGTCCTTA) | 0.474
16 | CAAAGTCCATGGACCGGTTTTCCCGGTAATCCGTATTTGTA (site CAAAGTCCTTA) | 2.04
17 | CAAAGTCCATGGACCGGTTTTCCCGGTAATCCGTATTTGTA (site GAAAGTCCTTA) | 0.405
18 | CAAAGTCCATGGACCGGTTTTCCCGGTAATCCGTATTTGTA (site TAAAGTCCTTA) | 0.742
19 | CAAATATCATGGACCGGTTTTCCCGGTAATCCGTATTTGAC (site CAAATATCTGT) | 1.58
20 | CAAATATCATGGACCGGTTTTCCCGGTAATCCGTATTTGAC (site CTAGTATCTGT) | 0.632
21 | CAACATACATGGACCGGTTTTCCCGGTAATCCGTATTTGGG (site CAACATACTCC) | 0.887
22 | CAACTCTCATGGACCGGTTTTCCCGGTAATCCGTATTTGGT (site CAACTCTCTAC) | 2.56
23 | CAACTGACATGGACCGGTTTTCCCGGTAATCCGTATTTGCA (site CAACTGACTTG) | 2.73
24 | CAACTTCCATGGACCGGTTTTCCCGGTAATCCGTATTTGTT (site CAACTTCCTAA) | 1.5
25 | CAAGAAGCATGGACCGGTTTTCCCGGTAATCCGTATTTGCT (site CAAGAAGCTAG) | 1.55

Row | Sequence | recombinant UMI read abundance (log10)
26 | CAAGAAGCATGGACCGGTTTTCCCGGTAATCCGTATTTGCT (site CAAGCAGCTAG) | 0
27 | CAAGAAGCATGGACCGGTTTTCCCGGTAATCCGTATTTGCT (site CAAGGAGCTAG) | 1.87
28 | CAAGAAGCATGGACCGGTTTTCCCGGTAATCCGTATTTGCT (site CAAGTAGCTAG) | 1.17
29 | CAAGAGTCATGGACCGGTTTTCCCGGTAATCCGTATTTGGT (site CAAGAGTCTAC) | 2.79
30 | CAAGATTCATGGACCGGTTTTCCCGGTAATCCGTATTTGGG (site CAAGATTCTCC) | 0.89
31 | CAAGCACCATGGACCGGTTTTCCCGGTAATCCGTATTTGCT (site CAAGCAACTAG) | 0
32 | CAAGCACCATGGACCGGTTTTCCCGGTAATCCGTATTTGCT (site CAAGCACCTAG) | 0.47
33 | CAAGCACCATGGACCGGTTTTCCCGGTAATCCGTATTTGCT (site CAAGCAGCTAG) | 0.0135
34 | CAAGCACCATGGACCGGTTTTCCCGGTAATCCGTATTTGCT (site CAAGCATCTAG) | 0.0059
35 | CAAGCAGCATGGACCGGTTTTCCCGGTAATCCGTATTTGCC (site CAAGCAGCTAG) | 1.86
36 | CAAGCAGCATGGACCGGTTTTCCCGGTAATCCGTATTTGCC (site CAAGCAGCTCG) | 1.16
37 | CAAGCAGCATGGACCGGTTTTCCCGGTAATCCGTATTTGCC (site CAAGCAGCTGG) | 2.75
38 | CAAGCAGCATGGACCGGTTTTCCCGGTAATCCGTATTTGCC (site CAAGCAGCTTG) | 1.94
39 | CAAGCATCATGGACCGGTTTTCCCGGTAATCCGTATTTGCT (site CAAGCAACTAG) | 0
40 | CAAGCATCATGGACCGGTTTTCCCGGTAATCCGTATTTGCT (site CAAGCACCTAG) | 0
41 | CAAGCATCATGGACCGGTTTTCCCGGTAATCCGTATTTGCT (site CAAGCAGCTAG) | 0
42 | CAAGCATCATGGACCGGTTTTCCCGGTAATCCGTATTTGCT (site CAAGCATCTAG) | 2.05
43 | CAAGCCTCATGGACCGGTTTTCCCGGTAATCCGTATTTGTC (site CAAGCCTCTGA) | 3.3
44 | CAAGCGCCATGGACCGGTTTTCCCGGTAATCCGTATTTGTT (site CAAGCGCCTAA) | 2.13
45 | CAAGCGCCATGGACCGGTTTTCCCGGTAATCCGTATTTGTT (site CAAGCGCCTCA) | 0.0113
46 | CAAGCGCCATGGACCGGTTTTCCCGGTAATCCGTATTTGTT (site CAAGCGCCTGA) | 1.75
47 | CAAGCGCCATGGACCGGTTTTCCCGGTAATCCGTATTTGTT (site CAAGCGCCTTA) | 0.663
48 | CAAGCTGCATGGACCGGTTTTCCCGGTAATCCGTATTTGCT (site CAAGCAGCTAG) | 0.397
49 | CAAGCTGCATGGACCGGTTTTCCCGGTAATCCGTATTTGCT (site CAAGCCGCTAG) | 0.95
50 | CAAGCTGCATGGACCGGTTTTCCCGGTAATCCGTATTTGCT (site CAAGCGGCTAG) | 0

Row | Sequence | recombinant UMI read abundance (log10)
51 | CAAGCTGCATGGACCGGTTTTCCCGGTAATCCGTATTTGCT (site CAAGCTGCTAG) | 2.42
52 | CAAGGAGCATGGACCGGTTTTCCCGGTAATCCGTATTTGTC (site CAAGGAGCTGA) | 3.18
53 | CAAGTCACATGGACCGGTTTTCCCGGTAATCCGTATTTGAG (site CAAGTCACTCA) | 1.48
54 | CAAGTCACATGGACCGGTTTTCCCGGTAATCCGTATTTGAG (site CAAGTCACTCC) | 0.563
55 | CAAGTCACATGGACCGGTTTTCCCGGTAATCCGTATTTGAG (site CAAGTCACTCG) | 1.1
56 | CAAGTCACATGGACCGGTTTTCCCGGTAATCCGTATTTGAG (site CAAGTCACTCT) | 1.82
57 | CAAGTCCCATGGACCGGTTTTCCCGGTAATCCGTATTTGCT (site CAAATCCCTAG) | 0
58 | CAAGTCCCATGGACCGGTTTTCCCGGTAATCCGTATTTGCT (site CAACTCCCTAG) | 0.843
59 | CAAGTCCCATGGACCGGTTTTCCCGGTAATCCGTATTTGCT (site CAAGTCCCTAG) | 1.92
60 | CAAGTCCCATGGACCGGTTTTCCCGGTAATCCGTATTTGCT (site CAATTCCCTAG) | 0
61 | CAAGTCGCATGGACCGGTTTTCCCGGTAATCCGTATTTGGG (site CAAGTCACTCC) | 0.0586
62 | CAAGTCGCATGGACCGGTTTTCCCGGTAATCCGTATTTGGG (site CAAGTCCCTCC) | 0.554
63 | CAAGTCGCATGGACCGGTTTTCCCGGTAATCCGTATTTGGG (site CAAGTCGCTCC) | 0.908
64 | CAAGTCGCATGGACCGGTTTTCCCGGTAATCCGTATTTGGG (site CAAGTCTCTCC) | 1.46
65 | CAAGTCTCATGGACCGGTTTTCCCGGTAATCCGTATTTGGG (site CAAGTCACTCC) | 0.0252
66 | CAAGTCTCATGGACCGGTTTTCCCGGTAATCCGTATTTGGG (site CAAGTCCCTCC) | 0.019
67 | CAAGTCTCATGGACCGGTTTTCCCGGTAATCCGTATTTGGG (site CAAGTCGCTCC) | 0.02
68 | CAAGTCTCATGGACCGGTTTTCCCGGTAATCCGTATTTGGG (site CAAGTCTCTCC) | 0.916
69 | CAAGTGACATGGACCGGTTTTCCCGGTAATCCGTATTTGGG (site CAAGTAACTCC) | 1.09
70 | CAAGTGACATGGACCGGTTTTCCCGGTAATCCGTATTTGGG (site CAAGTCACTCC) | 0.00913
71 | CAAGTGACATGGACCGGTTTTCCCGGTAATCCGTATTTGGG (site CAAGTGACTCC) | 0.246
72 | CAAGTGACATGGACCGGTTTTCCCGGTAATCCGTATTTGGG (site CAAGTTACTCC) | 0.48
73 | CAATACGCATGGACCGGTTTTCCCGGTAATCCGTATTTGAT (site CAATACGCTAT) | 2.03
74 | CAATACTCATGGACCGGTTTTCCCGGTAATCCGTATTTGAA (site CAATACTCTTT) | 3.09
75 | CAATACTCATGGACCGGTTTTCCCGGTAATCCGTATTTGAA (site CAATCCTCTTT) | 0
